{"source": "patent US20080319000A1", "about": "“Use of 3,1IB-Cis-Dihydrotetrabenazine for the Treatment of Symptoms of Huntingtons Disease” (CAMBRIDGE LABORATORIES (IRELAND) LIMITED, priority 2005, published 2008)", "key": {"[1]": {"tested_on": "B6CBA-Tg(HDexon1)62Gpb/1J transgenic (R6/2) mice", "assay": "Locomotor activity test in transgenic mice model of Huntington's disease", "assay_type": "in vivo", "conditions": "average recorded results, 5 mg/kg i.p.", "method": "B6CBA-Tg(HDexon1)62Gpb/1J transgenic (R6/2) mice are transgenic for the 5-end of the human HD gene carrying (CAG) 115-(CAG) 150 repeat expansions. […] These symptoms appear between 6 and 8 weeks of age. […] The mice had access to commercial mouse chow (mouse/rate breeding, ref. 9341 Provimi Kliba, Switzerland) and tap water. […] The mice were placed in a transparent plastic box of floor dimensions 30×30 cm in a room with low light intensity (maximum 20 lux). Locomotor activity was determined during a 10 minute period using a video image analyzer (Videotrack, View Point, Lyon, France). The number, distance and average speed of ambulatory movements were measured. The mice were returned to their home cages after testing. Group 1: hemizygote Transgenic B6CBA-Tg(HDexon 1)62Gpb/1J mice treated with vehicle i.p. once a day for 4 days (from day 0 to day 3) Group 2: hemizygote Transgenic B6CBA-Tg(HDexon 1)62Gpb/1J mice treated with 5 mg/kg i.p. of test item once a day for 4 days (from day 0 to day 3) […] • Test item administration • Simplified Irwin test, 40 min after administration • Locomotor activity test, immediately after the simplified Irwin test Simplified Irwin scores were analysed using non-parametric Mann-Whitney's U test. Locomotor activity data were analysed using Dunnett's t-test. Rotarod scores were analysed using the non-parametric Mann-Whitney's U-test. Statistical analyses were performed using the software Statview SE^+graphics software, Brain Power."}, "[2]": {"molecular_target": "T1, catechol O-methyl transferase (COMT) (Homo sapiens, UniProt P21964)", "T1 sequence (P21964 1-271)": "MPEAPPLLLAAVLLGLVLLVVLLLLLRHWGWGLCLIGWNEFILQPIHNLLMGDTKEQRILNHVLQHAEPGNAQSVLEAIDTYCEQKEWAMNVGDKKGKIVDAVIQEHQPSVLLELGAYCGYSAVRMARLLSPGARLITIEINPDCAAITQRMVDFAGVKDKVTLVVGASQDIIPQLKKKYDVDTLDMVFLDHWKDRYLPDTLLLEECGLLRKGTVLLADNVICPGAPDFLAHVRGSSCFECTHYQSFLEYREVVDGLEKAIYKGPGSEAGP", "assay": "COMT inhibition", "assay_type": "biochemical"}, "[3]": {"molecular_target": "Dopamine Transporter (DAT) (Homo sapiens, UniProt Q01959)", "sequence (Q01959 whole entry, species assumed)": "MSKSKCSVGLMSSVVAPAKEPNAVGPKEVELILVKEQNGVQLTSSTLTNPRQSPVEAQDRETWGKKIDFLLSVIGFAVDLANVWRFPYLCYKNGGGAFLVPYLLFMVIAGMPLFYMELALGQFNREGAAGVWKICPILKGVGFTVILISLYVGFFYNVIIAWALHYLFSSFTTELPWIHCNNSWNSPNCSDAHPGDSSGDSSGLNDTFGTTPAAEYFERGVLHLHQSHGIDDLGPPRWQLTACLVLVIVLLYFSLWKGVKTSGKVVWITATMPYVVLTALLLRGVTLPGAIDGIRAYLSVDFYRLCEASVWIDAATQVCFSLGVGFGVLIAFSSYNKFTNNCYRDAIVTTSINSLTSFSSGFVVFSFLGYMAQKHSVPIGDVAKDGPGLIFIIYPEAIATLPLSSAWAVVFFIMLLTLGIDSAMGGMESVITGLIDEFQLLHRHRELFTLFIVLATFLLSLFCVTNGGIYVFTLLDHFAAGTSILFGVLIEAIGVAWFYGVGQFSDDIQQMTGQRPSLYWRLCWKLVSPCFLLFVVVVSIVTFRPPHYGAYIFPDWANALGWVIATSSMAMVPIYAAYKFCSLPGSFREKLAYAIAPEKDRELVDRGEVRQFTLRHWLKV", "assay": "Dopamine Transporter (DAT) binding"}, "[4]": {"tested_on": "B6CBA-Tg(HDexon1)62Gpb/1J transgenic (R6/2) mice", "assay": "Rotarod test in transgenic mice model of Huntington's disease", "assay_type": "in vivo", "conditions": "5 mg/kg i.p. Day 0 to Day 3", "method": "B6CBA-Tg(HDexon1)62Gpb/1J transgenic (R6/2) mice are transgenic for the 5-end of the human HD gene carrying (CAG) 115-(CAG) 150 repeat expansions. […] These symptoms appear between 6 and 8 weeks of age. Female B6CBa-Tg(HDexon1)62Gpb/1J transgenic mice (Jackson Laboratory, USA) were housed 5 per cage in an enriched environment under a light-dark cycle of 12 h-12 h (light on at 7.00 am, off at 7.00 pm) at a room temperature of 21±2° C., with 50±15% humidity. The mice had access to commercial mouse chow (mouse/rate breeding, ref. 9341 Provimi Kliba, Switzerland) and tap water. […] Two consecutive days before the first administration, animals were trained to use the rotarod: they were placed on an accelerating rotarod (Ugo Basile, Italy) for a maximum time of 450 seconds. They went through 2 training sessions starting with 4 rpm for 300 seconds, then staying at 40 rpm for 150 seconds. The two training sessions were given at 1 hour intervals. On the days of testing, each animal was subjected to one trial under the conditions described above. Each trial was terminated when the mouse fell or when it had stayed on the rotarod for 450 seconds. The mice were returned to their home cages after testing. Group 1: hemizygote Transgenic B6CBA-Tg(HDexon 1)62Gpb/1J mice treated with vehicle i.p. once a day for 4 days (from day 0 to day 3) Group 2: hemizygote Transgenic B6CBA-Tg(HDexon 1)62Gpb/1J mice treated with 5 mg/kg i.p. of test item once a day for 4 days (from day 0 to day 3) […] • Test item administration • Simplified Irwin test, 40 minutes after administration • Rotarod test, immediately after the simplified Irwin test • Test item administration • Simplified Irwin test, 40 min after administration • Rotarod test, immediately after simplified #Irwin test Simplified Irwin scores were analysed using non-parametric Mann-Whitney's U test. Locomotor activity data were analysed using Dunnett's t-test. Rotarod scores were analysed using the non-parametric Mann-Whitney's U-test. Statistical analyses were performed using the software Statview SE^+graphics software, Brain Power."}, "[5]": {"conditions": "DAY 0, 40 mn after administration"}, "[6]": {"conditions": "DAY 2, 40 mn after administration"}}}
{"smiles": "COc1cc2c(cc1OC)[C@H]1C[C@H](O)[C@@H](CC(C)C)CN1CC2", "note": "(single isomer, unassigned) [Isomer B]", "values": [{"measurement": "Inactivity Duration", "setting": "[1]; [5]", "value": "184 ± 31", "unit": "s"}, {"measurement": "Large movements Duration", "setting": "[1]; [5]", "value": "99 ± 13", "unit": "s"}, {"measurement": "Large movements Occurence (number)", "setting": "[1]; [5]", "value": "280 ± 41", "unit": "number"}, {"measurement": "Large movements Speed", "setting": "[1]; [5]", "value": "13.0 ± 0.5", "unit": "cm/s"}, {"measurement": "Inactivity Duration", "setting": "[1]; DAY 0, before administration", "value": "149 ± 27", "unit": "s"}, {"measurement": "Large movements Duration", "setting": "[1]; DAY 0, before administration", "value": "128 ± 16", "unit": "s"}, {"measurement": "Large movements Occurence (number)", "setting": "[1]; DAY 0, before administration", "value": "309 ± 37", "unit": "number"}, {"measurement": "Large movements Speed", "setting": "[1]; DAY 0, before administration", "value": "13.2 ± 0.5", "unit": "cm/s"}, {"measurement": "Inactivity Duration", "setting": "[1]; [6]", "value": "134 ± 18", "unit": "s"}, {"measurement": "Large movements Duration", "setting": "[1]; [6]", "value": "123 ± 14", "unit": "s"}, {"measurement": "Large movements Occurence (number)", "setting": "[1]; [6]", "value": "322 ± 40", "unit": "number"}, {"measurement": "Large movements Speed", "setting": "[1]; [6]", "value": "13.9 ± 0.7", "unit": "cm/s"}, {"measurement": "Inactivity Duration", "setting": "[1]; DAY 24", "value": "67 ± 42", "unit": "s"}, {"measurement": "Large movements Duration", "setting": "[1]; DAY 24", "value": "148 ± 34", "unit": "s"}, {"measurement": "Large movements Occurence (number)", "setting": "[1]; DAY 24", "value": "818 ± 168", "unit": "number"}, {"measurement": "Large movements Speed", "setting": "[1]; DAY 24", "value": "11.2 ± 0.9", "unit": "cm/s"}, {"measurement": "inhibitory activity against catechol O-methyl transferase (COMT)", "setting": "[2]", "value": "no inhibitory activity"}, {"measurement": "Dopamine Transporter (DAT) binding activity", "setting": "[3]", "value": "lack Dopamine Transporter (DAT) binding activity"}, {"measurement": "Measured latencies to fall from Rotarod", "setting": "[4]; Day 0, prior to 1st administration", "value": "68.4 ± 17.7", "unit": "s"}, {"measurement": "Measured latencies to fall from Rotarod", "setting": "[4]; Day 1", "value": "91.4 ± 18.1", "unit": "s"}, {"measurement": "Measured latencies to fall from Rotarod", "setting": "[4]; Day 3", "value": "59.4 ± 11.2", "unit": "s"}, {"measurement": "Measured latencies to fall from Rotarod", "setting": "[4]; Day 9", "value": "29.0 ± 12.1", "unit": "s"}, {"measurement": "Measured latencies to fall from Rotarod", "setting": "[4]; Day 17", "value": "30.0 ± 11.0", "unit": "s"}, {"measurement": "Measured latencies to fall from Rotarod", "setting": "[4]; Day 21", "value": "22.1 ± 7.3", "unit": "s"}, {"measurement": "Measured latencies to fall from Rotarod", "setting": "[4]; Day 24", "value": "14.8 ± 4.3", "unit": "s"}, {"measurement": "Measured latencies to fall from Rotarod", "setting": "[4]; Day 27", "value": "15.8 ± 5.2", "unit": "s"}, {"measurement": "Measured latencies to fall from Rotarod", "setting": "[4]; Day 31", "value": "7.8 ± 2.4", "unit": "s"}]}
